Legend:
Assay in all cases: relative viability (nuclei count vs DMSO), 5 days (fraction); higher = more cells survive
[1] = compound: COc1cc2nc(N3CCCN(C)CC3)nc(NC3CCN(Cc4ccccc4)CC3)c2cc1OC + NC(=O)Nc1cc(-c2cccc(F)c2)sc1C(=O)N[C@H]1CCCNC1 [AZD7762] (partner 0.2 µM)
Procedure, shortened: (§1)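 For relative viability, nuclei counts in treated wells were divided by those in vehicle wells. Lung cancer cell lines had been pin-tool dosed in 1536-well plates the day after seeding and cultured for 5 days, then fixed and stained in one step (final 0.05% Triton X-100, 1% formaldehyde, 1 ug/ml Hoechst) and imaged at 4×. Doses were one drug alone or a fixed anchor-drug dose plus five library-drug doses (not always all listed) in √10 steps, and values are duplicate-plate medians.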

[2] = compound: COc1cc2nc(N3CCCN(C)CC3)nc(NC3CCN(Cc4ccccc4)CC3)c2cc1OC + CCNC(=O)c1noc(-c2cc(C(C)C)c(O)cc2O)c1-c1ccc(CN2CCOCC2)cc1 [Luminespib] (partner 0.01 µM)
Procedure, shortened: as §1

AZD6482 + Palbociclib = compound: Cc1cc([C@@H](C)Nc2ccccc2C(=O)O)c2nc(N3CCOCC3)cc(=O)n2c1 [AZD6482] + CC(=O)c1c(C)c2cnc(Nc3ccc(N4CCNCC4)cn3)nc2n(C2CCCC2)c1=O [Palbociclib] (partner 0.5 µM)
Procedure, shortened: as §1

[3] = compound: COc1cc2nc(N3CCCN(C)CC3)nc(NC3CCN(Cc4ccccc4)CC3)c2cc1OC + CC(=O)c1c(C)c2cnc(Nc3ccc(N4CCNCC4)cn3)nc2n(C2CCCC2)c1=O [Palbociclib] (partner 0.5 µM)
Procedure, shortened: as §1

Cell Line | relative viability ([1]; first compound 0.2 µM) | relative viability ([1]; first compound 0.6325 µM) | relative viability ([1]; first compound 2 µM) | relative viability ([1]; first compound 6.325 µM) | relative viability ([2]; first compound 0.2 µM) | relative viability ([2]; first compound 0.6325 µM) | relative viability ([2]; first compound 2 µM) | relative viability ([2]; first compound 6.325 µM) | relative viability (AZD6482 + Palbociclib; first compound 0.08 µM) | relative viability (AZD6482 + Palbociclib; first compound 0.253 µM) | relative viability (AZD6482 + Palbociclib; first compound 0.8 µM) | relative viability (AZD6482 + Palbociclib; first compound 2.53 µM) | relative viability (AZD6482 + Palbociclib; first compound 8 µM) | relative viability ([3]; first compound 0.2 µM) | relative viability ([3]; first compound 0.6325 µM) | relative viability ([3]; first compound 2 µM) | relative viability ([3]; first compound 6.325 µM)
NCI-H1666 | 0.901 | 0.809 | 0.76 | 0.746 | 0.973 | 0.997 | 1.11 | 0.947 | 0.637 | 0.576 | 0.722 | 0.638 | 0.681 | 0.644 | 0.633 | 0.648 | 0.633
LC-2-ad | 0.827 | 0.908 | 0.941 | 0.91 | 0.961 | 0.973 | 1.21 | 1.06 | 0.478 | 0.539 | 0.537 | 0.521 | 0.399 | 0.509 | 0.533 | 0.444 | 0.52
ChaGo-K-1 | 0.911 | 0.852 | 0.882 | 0.856 | 0.569 | 0.671 | 0.74 | 0.527 | 0.948 | 0.901 | 0.926 | 0.919 | 0.934 | 0.883 | 0.979 | 0.933 | 0.902
NCI-H1975 | 0.78 | 0.813 | 0.805 | 0.775 | 0.159 | 0.212 | 0.21 | 0.264 | 0.439 | 0.558 | 0.623 | 0.562 | 0.421 | 0.567 | 0.603 | 0.826 | 0.586
NCI-H1993 | 0.73 | 0.844 | 0.816 | 0.826 | 0.818 | 0.719 | 0.923 | 0.867 | 0.503 | 0.579 | 0.638 | 0.495 | 0.484 | 0.582 | 0.721 | 0.77 | 0.748
RERF-LC-KJ | 1.03 | 0.932 | 0.999 | 0.888 | 1.15 | 1.13 | 1.33 | 0.903 | 0.961 | 0.981 | 1.03 | 0.838 | 0.808 | 0.982 | 1.11 | 1.13 | 0.909
NCI-H23 | 0.198 | 0.322 | 0.262 | 0.174 | 0.223 | 0.209 | 0.206 | 0.187 | 0.471 | 0.421 | 0.487 | 0.396 | 0.325 | 0.475 | 0.522 | 0.521 | 0.415
EMC-BAC-2 | 1.06 | 1.16 | 1.07 | 1.29 | 1.09 | 1.17 | 1.2 | 1.14 | 0.494 | 0.491 | 0.518 | 0.46 | 0.429 | 0.525 | 0.472 | 0.517 | 0.546
NCI-H2405 | 0.671 | 0.792 | 0.829 | 0.973 | 0.778 | 0.673 | 0.75 | 0.786 | 0.378 | 0.495 | 0.526 | 0.455 | 0.413 | 0.554 | 0.493 | 0.522 | 0.514
NCI-H358 | 0.518 | 0.681 | 0.48 | 0.498 | 0.506 | 0.275 | 0.434 | 0.208 | 0.149 | 0.121 | 0.134 | 0.127 | 0.115 | 0.147 | 0.118 | 0.141 | 0.139
NCI-H1944 | 0.534 | 0.476 | 0.487 | 0.51 | 0.829 | 0.668 | 0.863 | 0.661 | 0.293 | 0.313 | 0.295 | 0.285 | 0.211 | 0.327 | 0.349 | 0.326 | 0.321
EPLC-272H | 0.209 | 0.209 | 0.184 | 0.258 | 0.228 | 0.736 | 0.262 | 0.432 | 0.297 | 0.292 | 0.328 | 0.332 | 0.244 | 0.326 | 0.322 | 0.316 | 0.346
NCI-H1915 | 0.698 | 0.586 | 0.72 | 0.764 | 0.762 | 0.731 | 0.794 | 0.893 | 0.478 | 0.524 | 0.529 | 0.49 | 0.521 | 0.527 | 0.504 | 0.607 | 0.461
NCI-H322M | 0.48 | 0.665 | 0.444 | 0.549 | 0.766 | 0.943 | 0.799 | 0.832 | 0.447 | 0.486 | 0.476 | 0.424 | 0.39 | 0.468 | 0.531 | 0.435 | 0.481
NCI-H2342 | 0.472 | 0.748 | 0.652 | 0.497 | 0.689 | 0.673 | 0.677 | 0.75 | 0.536 | 0.499 | 0.506 | 0.54 | 0.448 | 0.521 | 0.58 | 0.549 | 0.527
NCI-H647 | 0.479 | 0.602 | 0.512 | 0.419 | 0.352 | 0.249 | 0.159 | 0.292 | 0.305 | 0.293 | 0.309 | 0.241 | 0.195 | 0.336 | 0.457 | 0.348 | 0.213
NCI-H2170 | 0.936 | 0.809 | 0.892 | 0.833 | 0.887 | 0.648 | 0.88 | 0.69 | 0.36 | 0.387 | 0.387 | 0.384 | 0.347 | 0.383 | 0.406 | 0.37 | 0.352
NCI-H2085 | 0.992 | 0.992 | 1.09 | 0.947 | 0.458 | 0.393 | 0.373 | 0.404 | 0.408 | 0.379 | 0.336 | 0.273 | 0.343 | 0.455 | 0.484 | 0.5 | 0.458

Reference: the supplement of paper PMC10307832
